Source: PubChem BioAssay AID248 (DTP/NCI, 2004)
“And” between values parts separate entries of the source, which are not always exact repeats. Equal values may be shown once. Inconclusive results and toxic doses are left out. Rule as the data show it: active = T/C of 150% or more; inactive = T/C below 125%.

System: L1210 leukemia ip in BDF1 mice, survival T/C
Assay: NCI In Vivo Anticancer Drug Screen. Data for tumor model L1210 Leukemia (intraperitoneal) in B6D2F1 (BDF1) mice
Settings: endpoint: mean survival time, higher = longer survival
Summary of the method: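 Survival endpoint. Drug-treated group vs vehicle group, expressed as T divided by C. Tumor passaged by transplantation.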

[1] = dose: 50.0 mg/kg/injection, schedule: Q04DX003 (ip), vehicle: saline with Tween-80
[2] = dose: 100.0 mg/kg/injection, schedule: Q04DX003 (ip), vehicle: saline with Tween-80
[3] = dose: 400.0 mg/kg/injection, schedule: Q04DX003 (ip), vehicle: saline with Tween-80
[4] = dose: 100.0 mg/kg/injection, schedule: Q01DX001 (ip), vehicle: carboxymethylcellulose (CMC)
[5] = dose: 200.0 mg/kg/injection, schedule: Q01DX001 (ip), vehicle: carboxymethylcellulose (CMC)
[6] = dose: 400.0 mg/kg/injection, schedule: Q01DX001 (ip), vehicle: carboxymethylcellulose (CMC)
[7] = dose: 100.0 mg/kg/injection, schedule: Q04DX003 (ip), vehicle: Klucel (hydroxypropylcellulose) (HPC)
[8] = dose: 200.0 mg/kg/injection, schedule: Q04DX003 (ip), vehicle: Klucel (hydroxypropylcellulose) (HPC)
[9] = dose: 400.0 mg/kg/injection, schedule: Q04DX003 (ip), vehicle: Klucel (hydroxypropylcellulose) (HPC)
[10] = dose: 100.0 mg/kg/injection, schedule: Q04DX003 (ip), vehicle: saline
[11] = dose: 200.0 mg/kg/injection, schedule: Q04DX003 (ip), vehicle: saline
[12] = dose: 200.0 mg/kg/injection, schedule: Q04DX003 (ip), vehicle: saline with Tween-80
[13] = dose: 25.0 mg/kg/injection, schedule: Q01DX009 (ip), vehicle: Klucel (hydroxypropylcellulose) (HPC)
[14] = dose: 50.0 mg/kg/injection, schedule: Q01DX009 (ip), vehicle: Klucel (hydroxypropylcellulose) (HPC)
[15] = dose: 100.0 mg/kg/injection, schedule: Q01DX009 (ip), vehicle: Klucel (hydroxypropylcellulose) (HPC)
[16] = dose: 200.0 mg/kg/injection, schedule: Q01DX009 (ip), vehicle: Klucel (hydroxypropylcellulose) (HPC)

Measured: T/C

c1cc2c3c(c1)nc(CCc1nc4cccc5c4n1CCC5)n3CCC2
inactive: dose: 25.0 mg/kg/injection, schedule: Q04DX003 (ip), vehicle: saline with Tween-80 101 % of control | [1] 95 % of control | [2] 93 % of control and 87 % of control | [3] 87 % of control

Clc1ccc(/C=N/N=C(N/N=C/c2ccc(Cl)cc2Cl)N/N=C/c2ccc(Cl)cc2Cl)c(Cl)c1
inactive: dose: 15.0 mg/kg/injection, schedule: Q01DX Z (ip), vehicle: carboxymethylcellulose (CMC) 88 % of control | dose: 30.0 mg/kg/injection, schedule: Q01DX Z (ip), vehicle: carboxymethylcellulose (CMC) 93 % of control | dose: 60.0 mg/kg/injection, schedule: Q01DX Z (ip), vehicle: carboxymethylcellulose (CMC) 95 % of control and 88 % of control | dose: 120.0 mg/kg/injection, schedule: Q01DX Z (ip), vehicle: carboxymethylcellulose (CMC) 87 % of control and 88 % of control | dose: 240.0 mg/kg/injection, schedule: Q01DX Z (ip), vehicle: carboxymethylcellulose (CMC) 93 % of control | dose: 240.0 mg/kg/injection, schedule: Q01DX Z (oral), vehicle: carboxymethylcellulose (CMC) 102 % of control | dose: 480.0 mg/kg/injection, schedule: Q01DX Z (ip), vehicle: carboxymethylcellulose (CMC) 87 % of control | dose: 480.0 mg/kg/injection, schedule: Q01DX Z (oral), vehicle: carboxymethylcellulose (CMC) 104 % of control | dose: 960.0 mg/kg/injection, schedule: Q01DX Z (oral), vehicle: carboxymethylcellulose (CMC) 105 % of control | dose: 1920.0 mg/kg/injection, schedule: Q01DX Z (oral), vehicle: carboxymethylcellulose (CMC) 102 % of control

Cc1cc(=O)cc(S)[nH]1
inactive: [4] 94 % of control | [5] 100 % of control | [6] 91 % of control

CCOC(=O)C1(C(=O)O)CC2C(C)C=CC(C)C2C1 (configuration not stated)
inactive: [7] 100 % of control | [8] 94 % of control | [9] 91 % of control

CNCC(SC)c1ccc(O)c(O)c1 (configuration not stated)
inactive: dose: 50.0 mg/kg/injection, schedule: Q01DX009 (ip), vehicle: saline 103 % of control | dose: 100.0 mg/kg/injection, schedule: Q01DX009 (ip), vehicle: saline 103 % of control | [10] 114 % of control | dose: 200.0 mg/kg/injection, schedule: Q01DX009 (ip), vehicle: saline 121 % of control | [11] 114 % of control

CC1=NN(c2ccccc2)C(=O)C1N=Nc1ccc(S(=O)(=O)Nc2ccccn2)cc1 (configuration not stated)
inactive: [4] 97 % of control | [5] 94 % of control | [6] 97 % of control

CCCCCCCC(=O)Nc1c(C)cccc1C
inactive: [2] 97 % of control | [12] 93 % of control | [3] 93 % of control

Cc1cc(=O)[nH]c(N/N=C/c2ccccc2O)n1
inactive: [13] 93 % of control | [14] 94 % of control | dose: 100.0 mg/kg/injection, schedule: Q01DX001 (ip), vehicle: saline 98 % of control | [15] 93 % of control | [7] 92 % of control | dose: 125.0 mg/kg/injection, schedule: Q01DX Z (ip), vehicle: saline 97 % of control | dose: 200.0 mg/kg/injection, schedule: Q01DX001 (ip), vehicle: saline 96 % of control | [16] 95 % of control and 96 % of control | [8] 94 % of control | dose: 250.0 mg/kg/injection, schedule: Q01DX Z (ip), vehicle: saline 91 % of control | dose: 400.0 mg/kg/injection, schedule: Q01DX001 (ip), vehicle: saline 96 % of control | [9] 94 % of control | dose: 500.0 mg/kg/injection, schedule: Q01DX Z (ip), vehicle: saline 91 % of control | dose: 1000.0 mg/kg/injection, schedule: Q01DX Z (ip), vehicle: saline 91 % of control

CCCCNC(N)=S
inactive: [7] 98 % of control | [8] 104 % of control | [9] 102 % of control

CCc1ccc(/C(C#N)=C/c2ccc(N(C)C)cc2)cc1
inactive: [13] 100 % of control | [14] 91 % of control | [15] 96 % of control and 90 % of control

CC(=O)NC1C(OC(C)=O)OC(COC(C)=O)C(OC(C)=O)C1OC(C)=O (configuration not stated)
inactive: dose: 100.0 mg/kg/injection, schedule: Q01DX001 (ip), vehicle: saline with Tween-80 100 % of control | dose: 200.0 mg/kg/injection, schedule: Q01DX001 (ip), vehicle: saline with Tween-80 103 % of control | dose: 400.0 mg/kg/injection, schedule: Q01DX001 (ip), vehicle: saline with Tween-80 103 % of control

CCOC(=O)/C(C(N)=O)=C(/C)C=C(C)C
inactive: dose: 10.0 mg/kg/injection, schedule: Q01DX001 (ip), vehicle: acetone 101 % of control | dose: 20.0 mg/kg/injection, schedule: Q01DX001 (ip), vehicle: acetone 100 % of control

CN(CCCl)C(=O)Nc1ccc(Cl)cc1
inactive: [7] 94 % of control | [8] 94 % of control | [9] 90 % of control

CN(C)CCCNC(=S)S
inactive: dose: 6.0 mg/kg/injection, schedule: Q01DX009 (ip), vehicle: saline 106 % of control | dose: 12.0 mg/kg/injection, schedule: Q01DX009 (ip), vehicle: saline 100 % of control | dose: 25.0 mg/kg/injection, schedule: Q01DX009 (ip), vehicle: saline 111 % of control

CSC(=S)NN
inactive: dose: 2.0 mg/kg/injection, schedule: Q04DX002 (ip), vehicle: saline 113 % of control | dose: 4.0 mg/kg/injection, schedule: Q04DX002 (ip), vehicle: saline 110 % of control | dose: 8.0 mg/kg/injection, schedule: Q04DX002 (ip), vehicle: saline 94 % of control and 108 % of control

Cc1csc(NC(=O)C2C3CCC(O3)C2C(=O)O)n1 (configuration not stated)
inactive: dose: 5.0 mg/kg/injection, schedule: Q01DX001 (ip), vehicle: carboxymethylcellulose (CMC) 95 % of control | dose: 10.0 mg/kg/injection, schedule: Q01DX001 (ip), vehicle: carboxymethylcellulose (CMC) 101 % of control

BrC1(Br)CC1(c1ccccc1)c1ccccc1
inactive: [15] 93 % of control | [7] 107 % of control | [10] 107 % of control | [16] 97 % of control | [8] 107 % of control | [11] 107 % of control | dose: 400.0 mg/kg/injection, schedule: Q01DX009 (ip), vehicle: Klucel (hydroxypropylcellulose) (HPC) 101 % of control | [9] 97 % of control | dose: 400.0 mg/kg/injection, schedule: Q04DX003 (ip), vehicle: saline 97 % of control

O=C1NCCC/C1=N/Nc1ccccc1
inactive: dose: 100.0 mg/kg/injection, schedule: Q04DX002 (ip), vehicle: Klucel (hydroxypropylcellulose) (HPC) 92 % of control | dose: 200.0 mg/kg/injection, schedule: Q04DX002 (ip), vehicle: Klucel (hydroxypropylcellulose) (HPC) 92 % of control | dose: 400.0 mg/kg/injection, schedule: Q04DX002 (ip), vehicle: Klucel (hydroxypropylcellulose) (HPC) 113 % of control

O=S(=O)(c1ccccc1)c1nn2nnnc2c2ccccc12
inactive: [1] 107 % of control | [2] 104 % of control | [12] 103 % of control
